{
  "source": "patent US20230321064A1",
  "about": "“Products for Treating the JNCL Disease” (Beyond Batten Disease Foundation, priority 2020, published 2023)",
  "experiment": "Blood PK of Trehalose after IV and PO administration, with and without PO Miglustat (LC-MS/MS)",
  "format": "in vivo, mouse",
  "conditions": "for Cmax / Tmax / AUC(0-inf): male, C57BL6/N, mouse, whole blood; for AUC(0-inf): read-out: AUC0-inf of Trehalose in blood (converted)",
  "experimental": "LC-MS/MS bioanalytical methodologies were developed for the analysis of Trehalose, Miglustat and glucose in mouse whole blood and brain.\nBlood samples were prepared as follows; 20 μL of whole blood was transferred to a 96 wellplate and diluted 1:1 with sterile distilled water. Samples were protein precipitated by addition of 160 μL of 2.5% of trichloroacetic acid (TCA). At the time of analysis, 1 volume of acetonitrile containing an internal standard was added in order to match the initial chromatography conditions, samples were centrifuged at 4350 rpm for 10 min at ambient temperature, and the resultant supernatant transferred for analysis on the LC-MS/MS.\nThe purpose of this example was to compare the blood PK of unlabelled high doses of Trehalose after IV and PO administration, with and without Miglustat PO dosing. For the IV comparison, Trehalose was dosed as an IV bolus dose 15 min after PO dosing of Miglustat. For the PO comparison Miglustat was dosed simultaneously with Trehalose. Fasted male C57BL6/N mice were dosed as detailed in Table III:\nBlood samples were collected at pre-dose, 10, 20, 30, 60, 120 and 180 min post-dose for group 1 and 2 and at pre-dose, 15, 30, 45, 60, 120 and 180 min post-dose for group 3 and 4.",
  "key": {"[1]": {"conditions": "1 g/kg trehalose IV + 150 mg/kg miglustat PO"}, "[2]": {"conditions": "10 g/kg trehalose PO + 150 mg/kg miglustat PO"}},
  "note": "Read-outs that look alike come from different tables or passages of the source.",
  "data": [
    {"smiles": "OC[C@H]1O[C@H](O[C@H]2O[C@H](CO)[C@@H](O)[C@H](O)[C@H]2O)[C@H](O)[C@@H](O)[C@@H]1O", "note": "[Trehalose, α-D-glucopyranosyl α-D-glucopyranoside dihydrate]", "values": [
      {"measurement": "Trehalose fold-change with miglustat dosing", "setting": "1 g/kg trehalose IV + 150 mg/kg miglustat PO vs 1 g/kg IV alone", "value": 1.5},
      {"measurement": "increase of measured AUC of Trehalose by combined PO Miglustat", "setting": "Trehalose via either IV or PO administration", "value": "> 1.5", "unit": "fold"},
      {"measurement": "detection of Trehalose after oral administration", "setting": "low doses such as 1 g/kg, oral", "value": "cannot be detected"},
      {"measurement": "Cmax", "setting": "1 g/kg trehalose IV", "value": "3690 ± 153", "unit": "µM"},
      {"measurement": "Tmax", "setting": "1 g/kg trehalose IV", "value": 20, "unit": "min"},
      {"measurement": "Cmax", "setting": "[1]", "value": "5490 ± 873", "unit": "µM"},
      {"measurement": "Tmax", "setting": "[1]", "value": 20, "unit": "min"},
      {"measurement": "AUC(0-inf)", "setting": "[1]", "value": 2990, "unit": "µM·h"},
      {"measurement": "AUC(0-inf)", "setting": "1 g/kg trehalose IV", "value": 1960, "unit": "µM·h"},
      {"measurement": "Cmax", "setting": "[2]", "value": "189 ± 43.9", "unit": "µM"},
      {"measurement": "Tmax", "setting": "[2]", "value": 15, "unit": "min"},
      {"measurement": "AUC(0-inf)", "setting": "[2]", "value": 307, "unit": "µM·h"}
    ]}
  ]
}
